Data published in patent US20170334899A1, “AMINO-SUBSTITUTED ISOTHIAZOLES” (Bayer Pharma Aktiengesellschaft, priority 2014, published 2017).

Key:
[1] = system: human cervical tumor cell line HeLa (ATCC CCL-2); assay: SAC-Formation - Paclitaxel-Induced Assay; type: cell-based; settings: Homo sapiens, HeLa, 24 h, HeLa cells, paclitaxel 0.05 μM, test range 0.005 μM-20 μM, read-out: IC50 [mol/l] SAC-Formation - Paclitaxel-Induced Assay
In short: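 HeLa cells incubated overnight at 37° C, then given paclitaxel (0.05 μM final) plus test compound (0.005–20 μM, 0.5% DMSO) together for 24 h at 37° C. Fixed cells stained for phospho-histone H3 Ser10 (mitotic cells) and Hoechst 33342 (cell count); imaging-derived mitotic index fitted by four-parameter Hill equation.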

[2] = system: human cervical tumor cell line HeLa (ATCC CCL-2); assay: SAC-Formation - Nocodazole-Induced Assay; type: cell-based; settings: Homo sapiens, HeLa, 24 h, HeLa cells, nocodazole 0.1 μg/ml together with test compound, decrease of mitotic cells (phospho-histone H3 Ser10)
In short: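 HeLa cells, plated overnight, were treated 24 h at 37 °C with nocodazole (0.1 μg/ml final) plus test compound (0.005–20 μM, 0.5% DMSO) added at the same time. After fixation, anti-phospho-histone H3 Ser10 and Hoechst staining gave the mitotic cell fraction by imaging. Values came from four-parameter Hill fits.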

IC50 [1] [nM] | IC50 [2] [nM] | SMILES
13000 | 4600 | Cc1nsc(Nc2cncc(C(F)(F)F)n2)c1C(=O)Nc1ccc(OC2CCNCC2)nc1 [Example 13, 3-Methyl-N-[6-(piperidin-4-yloxy)pyridin-3-yl]-5-{[6-(trifluoromethyl)pyrazin-2-yl]-amino}-1,2-thiazole-4-carboxamide]
630 | 940 | Cc1nsc(Nc2cncc(C(F)(F)F)n2)c1C(=O)Nc1ccc(OC2CCN(CCF)CC2)nc1 [Example 14, N-(6-{[1-(2-Fluoroethyl)piperidin-4-yl]oxy}pyridin-3-yl)-3-methyl-5-{[6-(trifluoro-methyl)pyrazin-2-yl]amino}-1,2-thiazole-4-carboxamide]
420 | 41 | Cc1nsc(Nc2cncc(C(F)(F)F)n2)c1C(=O)Nc1ccc(OC2CCN(CC(F)(F)F)CC2)nc1 [Example 16, 3-Methyl-N-(6-{[1-(2,2,2-trifluoroethyl)piperidin-4-yl]oxy}pyridin-3-yl)-5-{[6-(trifluoromethyl)pyrazin-2-yl]amino}-1,2-thiazole-4-carboxamide]
300 | 210 | CC(=O)N1CCC(Oc2ccc(NC(=O)c3c(C)nsc3Nc3cncc(C(F)(F)F)n3)cn2)CC1 [Example 17, N-{6-[(1-Acetylpiperidin-4-yl)oxy]pyridin-3-yl}-3-methyl-5-{[6-(trifluoromethyl)-pyrazin-2-yl]amino}-1,2-thiazole-4-carboxamide]
59 | 44 | Cc1nsc(Nc2cnc3ccccc3n2)c1C(=O)Nc1ccc(OC2CCN(C(=O)OC(C)(C)C)CC2)nc1 [Example 18, tert-Butyl 4-{[5-({[3-methyl-5-(quinoxalin-2-ylamino)-1,2-thiazol-4-yl]carbonyl}-amino)pyridin-2-yl]oxy}piperidine-1-carboxylate]
2100 | 320 | Cc1nsc(Nc2cnc3ccccc3n2)c1C(=O)Nc1ccc(OC2CCNCC2)nc1 [Example 19, 3-Methyl-N-[6-(piperidin-4-yloxy)pyridin-3-yl]-5-(quinoxalin-2-ylamino)-1,2-thiazole-4-carboxamide]
180 | 53 | Cc1nsc(Nc2cnc3ccccc3n2)c1C(=O)Nc1ccc(OC2CCN(CC(F)F)CC2)nc1 [Example 20, N-(6-{[1-(2,2-difluoroethyl)piperidin-4-yl]oxy}pyridin-3-yl)-3-methyl-5-(quinoxalin-2-ylamino)-1,2-thiazole-4-carboxamide]
550 | 5800 | CCN(CC)CCNC(=O)c1cccc(NC(=O)c2c(C)nsc2Nc2cc(C#N)ccn2)c1 [Example 174, 5-[(4-cyanopyridin-2-yl)amino]-N-(3-{[2-(diethylamino)ethyl]carbamoyl}phenyl)-3-methyl-1,2-thiazole-4-carboxamide]
2600 | 2200 | Cc1nsc(Nc2cc(C#N)ccn2)c1C(=O)Nc1cccc(C(=O)NC2CC2)c1 [Example 175, 5-[(4-cyanopyridin-2-yl)amino]-N-[3-(cyclopropylcarbamoyl)phenyl]-3-methyl-1,2-thiazole-4-carboxamide]
240 | 230 | COC(=O)CCc1cccc(NC(=O)c2c(C)nsc2Nc2ccc(C#N)cn2)c1 [Example 176, methyl 3-{3-[({5-[(5-cyanopyridin-2-yl)amino]-3-methyl-1,2-thiazol-4-yl}carbonyl)amino]phenyl}propanoate]
11000 | 3900 | Cc1nsc(Nc2cc(C#N)ccn2)c1C(=O)Nc1ccc(NC(=O)OC(C)(C)C)cc1 [Example 177, tert-butyl {4-[({5-[(4-cyanopyridin-2-yl)amino]-3-methyl-1,2-thiazol-4-yl}carbonyl)amino]phenyl}carbamate]
260 | 210 | Cc1nsc(Nc2cnc3ccccc3n2)c1C(=O)Nc1cccc(NC(=O)OC(C)(C)C)c1 [Example 178, tert-butyl [3-({[3-methyl-5-(quinoxalin-2-ylamino)-1,2-thiazol-4-yl]carbonyl}amino)-phenyl]carbamate]
2200 | 320 | Cc1nsc(Nc2ccc(C#N)cn2)c1C(=O)Nc1cccc(NC(=O)OC(C)(C)C)c1 [Example 179, tert-butyl {3-[({5-[(5-cyanopyridin-2-yl)amino]-3-methyl-1,2-thiazol-4-yl}carbonyl)amino]phenyl}carbamate]
4300 | 1300 | Cc1nsc(Nc2ccc(C#N)cn2)c1C(=O)Nc1cccc(N)c1 [Example 180, N-(3-aminophenyl)-5-[(5-cyanopyridin-2-yl)amino]-3-methyl-1,2-thiazole-4-carboxamide]
100 | 260 | Cc1nsc(Nc2cnc3ccccc3n2)c1C(=O)Nc1ccc(C(=O)OC(C)(C)C)cc1 [Example 181, tert-butyl 4-({[3-methyl-5-(quinoxalin-2-ylamino)-1,2-thiazol-4-yl]carbonyl}amino)benzoate]
19 | 25 | Cc1nsc(Nc2cc(C#N)ccn2)c1C(=O)Nc1ccc(C(=O)OC(C)(C)C)cc1 [Example 182, tert-butyl 4-[({5-[(4-cyanopyridin-2-yl)amino]-3-methyl-1,2-thiazol-4-yl}carbonyl)amino]benzoate]
4900 | 1500 | Cc1nsc(Nc2cc(C#N)ccn2)c1C(=O)Nc1cccc(NC(=O)C(C)(C)C)c1 [Example 183, 5-[(4-cyanopyridin-2-yl)amino]-N-{3-[(2,2-dimethylpropanoyl)amino]phenyl}-3-methyl-1,2-thiazole-4-carboxamide]
140 | 88 | Cc1nsc(Nc2cnccn2)c1C(=O)Nc1ccc(C(=O)OC(C)(C)C)cc1 [Example 184, tert-butyl 4-({[3-methyl-5-(pyrazin-2-ylamino)-1,2-thiazol-4-yl]carbonyl}amino)benzoate]
4700 | 1600 | Cc1nsc(Nc2cnc3ccccc3n2)c1C(=O)Nc1ccc(NC(=O)C(C)(C)C)cc1 [Example 185, N-{4-[(2,2-dimethylpropanoyl)amino]phenyl}-3-methyl-5-(quinoxalin-2-ylamino)-1,2-thiazole-4-carboxamide]
3800 | 630 | Cc1nsc(Nc2cnc3ccccc3n2)c1C(=O)Nc1cccc(NC(=O)C(C)(C)C)c1 [Example 186, N-{3-[(2,2-dimethylpropanoyl)amino]phenyl}-3-methyl-5-(quinoxalin-2-ylamino)-1,2-thiazole-4-carboxamide]
1400 | 2200 | Cc1nsc(Nc2cnc3ccccc3n2)c1C(=O)Nc1ccc(C(=O)O)cc1 [Example 187, 4-({[3-methyl-5-(quinoxalin-2-ylamino)-1,2-thiazol-4-yl]carbonyl}amino)benzoic acid]
10000 | 230 | Cc1nsc(Nc2cnc3ccccc3n2)c1C(=O)Nc1ccccc1S(C)(=O)=O [Example 188, 3-methyl-N-[2-(methylsulfonyl)phenyl]-5-(quinoxalin-2-ylamino)-1,2-thiazole-4-carboxamide]
450 | 150 | Cc1nsc(Nc2cncc(C(F)(F)F)n2)c1C(=O)Nc1ccc(OC2CCCN(C(=O)OC(C)(C)C)C2)nc1 (stereo not shown) [Example 189, tert-butyl 3-[(5-{[(3-methyl-5-{[6-(trifluoromethyl)pyrazin-2-yl]amino}-1,2-thiazol-4-yl)carbonyl]amino}pyridin-2-yl)oxy]piperidine-1-carboxylate]
